Results on 29 compounds are retold here after patent US11045457B2, “Piperidinyl-3-(aryloxy)propanamides and propanoates” (priority 2018, dated 2021).

In assay [1] the target is T1, SSTR4 (Homo sapiens (Human), UniProt P31391). As to the kind of experiment: Inhibition of forskolin stimulated cAMP in CHO-K1 cells overexpressing SSTR4. The format is cell-based. The following applies: for EC50: read-out: SSTR4 Activity pEC50 (converted). The method, boiled down:
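Read-out is a HTRF LANCE Ultra cAMP competition using Eu-labelled streptavidin and biotin-cAMP, incubated 60 min at room temperature. It followed a 30 min room-temperature exposure of Kreb's Ringer-washed cells to compound plus forskolin. Potency is expressed as pEC50.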

In assay [2] the target is T1, SSTR4. As to the kind of experiment: SSTR4 I-125 somatostatin competition binding assay (membranes from CHO-K1 cells overexpressing SSTR4). The following applies: competition with I-125 labeled somatostatin; for IC50: read-out: SSTR4 Binding pIC50 (converted).

T1 sequence (P31391 whole entry): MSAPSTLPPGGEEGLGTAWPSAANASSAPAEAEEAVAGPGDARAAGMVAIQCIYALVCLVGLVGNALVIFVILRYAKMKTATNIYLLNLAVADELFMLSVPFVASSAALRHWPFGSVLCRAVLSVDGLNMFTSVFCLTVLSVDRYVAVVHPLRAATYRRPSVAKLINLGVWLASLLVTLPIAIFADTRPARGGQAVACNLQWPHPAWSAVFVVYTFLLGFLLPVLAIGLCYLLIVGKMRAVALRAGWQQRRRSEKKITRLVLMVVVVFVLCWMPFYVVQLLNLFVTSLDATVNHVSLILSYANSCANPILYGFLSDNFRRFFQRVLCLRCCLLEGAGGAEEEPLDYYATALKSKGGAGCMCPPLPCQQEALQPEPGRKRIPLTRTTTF

As for `C[C@H]1CNCC[C@@H]1NC(=O)C(C)(C)COc1ccccc1F` [Example 196, 3-(2-fluorophenoxy)-2,2-dimethyl-N-((3S,4S)-3-methylpiperidin-4-yl)propanamide], the “SSTR4 Activity pEC50” value at SSTR4 [1] worked out at 8.5. Besides, the “SSTR4 Binding pIC50” value at SSTR4 [2] is 7.5.
Taken in the same sequence, the figures for `C[C@@H]1C[C@H](NC(=O)C(F)(F)COc2ncccc2OC(F)(F)F)CCN1C` [Example 206, N-((2R,4R)-1,2-dimethylpiperidin-4-yl)-2,2-difluoro-3-((3-(trifluoromethoxy)pyridin-2-yl)oxy)propanamide] were 7.7 and 6.7.
Taken in the same sequence, the figures for `CC(C)(COc1ncccc1C(F)(F)F)C(=O)N[C@H]1CCNC[C@@H]1F` [Example 158, N-((3S,4S)-3-fluoropiperidin-4-yl)-2,2-dimethyl-3-((3-(trifluoromethyl)pyridin-2-yl)oxy)propanamide] were 8.2 and 8.1.
Consider `Cc1cnc(OCC(C)(C)C(=O)N[C@@H]2CCN(C)[C@H](C)C2)c(C)c1` [Example 218, N-((2R,4R)-1,2-dimethylpiperidin-4-yl)-3-((3,5-dimethylpyridin-2-yl)oxy)-2,2-dimethylpropanamide], for which the “SSTR4 Activity pEC50” value on SSTR4 [1] is 7.5. In addition, the “SSTR4 Binding pIC50” value at SSTR4 [2] is 6.2.
`CC[C@@H]1CN(C)CC[C@H]1NC(=O)C(C)(C)COc1ncccc1OC(F)(F)F` (racemic) [Example 115, N-(trans-3-ethyl-1-methylpiperidin-4-yl)-2,2-dimethyl-3-((3-(trifluoromethoxy)pyridin-2-yl)oxy)propanamide]: the EC50 on SSTR4 [1] is 0.631 nM. The IC50 at SSTR4 [2] was 5.01 nM.
Taken in the same sequence, the figures for `C[C@H]1C[C@@H](NC(=O)C(F)(F)COc2ncccc2C(F)(F)F)CCN1C` (racemic) [Example 191, cis-N-(1,2-dimethylpiperidin-4-yl)-2,2-difluoro-3-((3-(trifluoromethyl)pyridin-2-yl)oxy)propanamide] were 79.4 nM and 200 nM.
In the case of `CC[C@@H]1CN(C)CC[C@@H]1NC(=O)C(C)(C)COc1ncccc1OC(F)(F)F` (relative stereo) [Example 116, N-(cis-3-ethyl-1-methylpiperidin-4-yl)-2,2-dimethyl-3-((3-(trifluoromethoxy)pyridin-2-yl)oxy)propanamide], the “SSTR4 Activity pEC50” value at SSTR4 [1] turned out to be 7.5. Also, on SSTR4 [2], the “SSTR4 Binding pIC50” value is reported as 6.2.
As for `C[C@@H]1CN(C)CC[C@H]1NC(=O)C(C)(C)COc1ncccc1OC(F)(F)F` (single isomer, unassigned) [Example 108], on SSTR4 [1], the “SSTR4 Activity pEC50” value amounted to 6.8. Also, the “SSTR4 Binding pIC50” value at SSTR4 [2] came out at 6.1.
Consider `C[C@H]1CN(C)CC[C@@H]1NC(=O)C(C)(C)COc1ncccc1OC(F)(F)F` [Example 107, N-((3S,4S)-1,3-dimethylpiperidin-4-yl)-2,2-dimethyl-3-((3-(trifluoromethoxy)pyridin-2-yl)oxy)propanamide], for which the “SSTR4 Activity pEC50” value on SSTR4 [1] turned out to be 8.7. Besides, at SSTR4 [2], the “SSTR4 Binding pIC50” value worked out at 7.7.
On to `C[C@@H]1CN(CC#N)CC[C@H]1NC(=O)C(C)(C)COc1ncccc1OC(F)(F)F` (relative stereo) [Example 184, trans-N-(1-(cyanomethyl)-3-methylpiperidin-4-yl)-2,2-dimethyl-3-((3-(trifluoromethoxy)pyridin-2-yl)oxy)propanamide], for which the “SSTR4 Activity pEC50” value at SSTR4 [1] was 7.6. Besides, the “SSTR4 Binding pIC50” value on SSTR4 [2] was 6.0.
Take `O=C(N[C@H]1CCNC[C@@H]1F)C(F)(F)COc1ncccc1C(F)(F)F` [Example 197, 2,2-difluoro-N-((3S,4S)-3-fluoropiperidin-4-yl)-3-((3-(trifluoromethyl)pyridin-2-yl)oxy)propanamide]: the “SSTR4 Activity pEC50” value on SSTR4 [1] is 7.7. Moreover, on SSTR4 [2], the “SSTR4 Binding pIC50” value was 7.0.
Regarding `C[C@@H]1CN(C)CC[C@H]1NC(=O)C(C)(C)COc1ncccc1C(F)(F)F` (relative stereo) [Example 11, trans-N-(1,3-dimethylpiperidin-4-yl)-2,2-dimethyl-3-((3-(trifluoromethyl)pyridin-2-yl)oxy)propanamide], on SSTR4 [1], the “SSTR4 Activity pEC50” value is given as 8.0. Further, at SSTR4 [2], the “SSTR4 Binding pIC50” value was found to be 7.0.
Take `C[C@@H]1CN(C)CC[C@H]1NC(=O)C(C)(C)COc1ncccc1OC(F)(F)F` (single isomer, unassigned) [Example 13, trans-N-(1,3-dimethylpiperidin-4-yl)-2,2-dimethyl-3-((3-(trifluoromethoxy)pyridin-2-yl)oxy)propanamide]: at SSTR4 [1], the “SSTR4 Activity pEC50” value worked out at 8.4. Moreover, the “SSTR4 Binding pIC50” value on SSTR4 [2] is on record as 7.5.
Taken in the same sequence, the figures for `Cc1cnc(OCC(C)(C)C(=O)N[C@H]2CCN(C)C[C@@H]2C)c(C)c1` [Example 141, N-((3S,4S)-1,3-dimethylpiperidin-4-yl)-3-((3,5-dimethylpyridin-2-yl)oxy)-2,2-dimethylpropanamide] were 7.4 and 6.8.
For the compound `C[C@@H]1CN(C)CC[C@H]1NC(=O)C(C)(C)COc1ncccc1C(F)(F)F` (relative stereo) [Example 109, trans-N-(1,3-dimethylpiperidin-4-yl)-2,2-dimethyl-3-((3-(trifluoromethyl)pyridin-2-yl)oxy)propanamide], on SSTR4 [1], the “SSTR4 Activity pEC50” value was 8.0. For the same compound, the “SSTR4 Binding pIC50” value at SSTR4 [2] is 7.0.
On to `Cc1cccnc1OCC(F)(F)C(=O)N[C@@H]1CCN(C)C[C@H]1C` (racemic) [Example 199, N-(trans-1,3-dimethylpiperidin-4-yl)-2,2-difluoro-3-((3-methylpyridin-2-yl)oxy)propanamide], for which, at SSTR4 [1], the EC50 is 158 nM. Further, the IC50 on SSTR4 [2] was 794 nM.
On to `CCOc1ccccc1OCC(C)(C)C(=O)NC1CCN(C)CC1` [Example 78, 3-(2-ethoxyphenoxy)-2,2-dimethyl-N-(1-methylpiperidin-4-yl)propanamide], for which the “SSTR4 Activity pEC50” value at SSTR4 [1] came out at 7.4. For the same compound, on SSTR4 [2], the “SSTR4 Binding pIC50” value is 6.7.
Taken in the same sequence, the figures for `CC[C@@H]1CN(C)CC[C@@H]1NC(=O)C(C)(C)COc1ncccc1C(F)(F)F` (relative stereo) [Example 111, cis-N-(3-ethyl-1-methylpiperidin-4-yl)-2,2-dimethyl-3-((3-(trifluoromethyl)pyridin-2-yl)oxy)propanamide] were 7.7 and 6.7.
As for `Cc1cnc(OCC(C)(C)C(=O)N[C@@H]2CCN(C)C[C@H]2C)c(C)c1` (single isomer, unassigned) [Example 31, trans-N-(1,3-dimethylpiperidin-4-yl)-3-((3,5-dimethylpyridin-2-yl)oxy)-2,2-dimethylpropanamide], the EC50 on SSTR4 [1] is 25.1 nM. For the same compound, the IC50 at SSTR4 [2] was 251 nM.
For `Cc1cnc(OCC(C)(C)C(=O)NC2CCN(C)CC2)c(C)c1` [Example 84, 3-((3,5-dimethylpyridin-2-yl)oxy)-2,2-dimethyl-N-(1-methylpiperidin-4-yl)propanamide], the “SSTR4 Activity pEC50” value on SSTR4 [1] came out at 7.4. In addition, the “SSTR4 Binding pIC50” value on SSTR4 [2] was 6.5.
Regarding `Cc1cccnc1OCC(C)(C)C(=O)N[C@H]1CCN(C)C[C@@H]1F` [Example 121, N-((3S,4S)-3-fluoro-1-methylpiperidin-4-yl)-2,2-dimethyl-3-((3-methylpyridin-2-yl)oxy)propanamide], the “SSTR4 Activity pEC50” value at SSTR4 [1] is 6.9. The “SSTR4 Binding pIC50” value at SSTR4 [2] is on record as 6.6.
Turning to `C[C@@H]1C[C@H](NC(=O)C(C)(C)COc2ncccc2C(F)(F)F)CCN1C` [Example 176], the “SSTR4 Activity pEC50” value on SSTR4 [1] is on record as 7.7. Besides, the “SSTR4 Binding pIC50” value on SSTR4 [2] stood at 7.1.
Taken in the same sequence, the figures for `C[C@H]1C[C@@H](NC(=O)C(C)(C)COc2ncccc2C(F)(F)F)CCN1C` (relative stereo) [Example 129, cis-N-(1,2-dimethylpiperidin-4-yl)-2,2-dimethyl-3-((3-(trifluoromethyl)pyridin-2-yl)oxy)propanamide] were 7.7 and 6.8.
As to `C[C@H]1CN(C)CC[C@@H]1NC(=O)C(C)(C)COc1ncccc1C(F)(F)F` [Example 105, N-((3S,4S)-1,3-dimethylpiperidin-4-yl)-2,2-dimethyl-3-((3-(trifluoromethyl)pyridin-2-yl)oxy)propanamide], the “SSTR4 Activity pEC50” value at SSTR4 [1] worked out at 8.1. Moreover, the “SSTR4 Binding pIC50” value on SSTR4 [2] is recorded as 7.2.
The matching figures for `COc1cccnc1OCC(C)(C)C(=O)NC1CCN(C)CC1` [Example 49, 3-((3-methoxypyridin-2-yl)oxy)-2,2-dimethyl-N-(1-methylpiperidin-4-yl)propanamide]: 6.7 and 6.0.
The matching figures for `Cc1cnc(OCC(C)(C)C(=O)N[C@@H]2CCNC[C@H]2F)c(C)c1` [Example 214, 3-((3,5-dimethylpyridin-2-yl)oxy)-N-((3R,4R)-3-fluoropiperidin-4-yl)-2,2-dimethylpropanamide]: 8.2 and 6.8.
As for `CC[C@@H]1CN(C)CC[C@H]1NC(=O)C(C)(C)COc1ncccc1C(F)(F)F` (single isomer, unassigned) [Example 144], the “SSTR4 Activity pEC50” value at SSTR4 [1] was 8.7. Besides, on SSTR4 [2], the “SSTR4 Binding pIC50” value is given as 8.0.
In the case of `Cc1ncccc1[C@@H]1CNCC[C@H]1OC(=O)C(C)(C)COc1ncccc1C(F)(F)F` (racemic) [Example 170, trans-3-(2-methylpyridin-3-yl)piperidin-4-yl 2,2-dimethyl-3-((3-(trifluoromethyl)pyridin-2-yl)oxy)propanoate], at SSTR4 [1], the EC50 is 39.8 nM. Moreover, the IC50 at SSTR4 [2] is 200 nM.
Take `O=C(N[C@H]1CCNC[C@@H]1F)C(F)(F)COc1ncccc1OC(F)(F)F` [Example 207, 2,2-difluoro-N-((3S,4S)-3-fluoropiperidin-4-yl)-3-((3-(trifluoromethoxy)pyridin-2-yl)oxy)propanamide]: the “SSTR4 Activity pEC50” value on SSTR4 [1] turned out to be 8.1. The “SSTR4 Binding pIC50” value on SSTR4 [2] was 7.6.
